BindingDB's records for doi:10.7270/Q2DF6PMF (Nmmlsc, 2007)
Structures can show the parent of a compound that is named as a salt.

What follows are compounds tested against T1, N-formyl peptide receptor 2 (Homo sapiens, UniProt P25090) (assay: concentration-dependent FPRL1 ligand displacement – cell-based, FPR counter-screen, fluorescent ligand, dose response (AID 520)). Details: not given.
T1 sequence (P25090 whole entry): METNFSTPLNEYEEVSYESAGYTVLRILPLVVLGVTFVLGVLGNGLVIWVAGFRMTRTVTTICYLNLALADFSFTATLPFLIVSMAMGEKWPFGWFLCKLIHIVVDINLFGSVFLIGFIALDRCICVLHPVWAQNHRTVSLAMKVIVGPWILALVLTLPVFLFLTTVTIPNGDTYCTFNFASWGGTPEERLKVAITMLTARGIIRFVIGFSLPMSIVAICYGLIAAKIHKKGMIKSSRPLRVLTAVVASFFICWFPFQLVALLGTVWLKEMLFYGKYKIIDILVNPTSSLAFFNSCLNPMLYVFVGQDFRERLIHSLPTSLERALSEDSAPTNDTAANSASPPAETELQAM

| IC50 [µM] | Ki [µM] | Structure (SMILES) |
| --- | --- | --- |
| > 66.7 | – | COc1ccccc1NC(=O)CSc1nnc(Cn2nnc(-c3ccccc3)n2)n1-c1ccccc1 [MLS000032410] |
| > 66.7 | – | Cc1[nH]n2c(=O)c3c(nc2c1-c1ccc(Cl)cc1)CCC3 [MLS000034815] |
| > 66.7 | – | COc1ccc(CN(C(=O)c2ccccc2OC)C2CCS(=O)(=O)C2)cc1 (stereo not given) [MLS000041347] |
| > 66.7 | – | COc1ccc(NC(=O)C(c2ccc(C)cc2)N(C)C(=O)c2cnccn2)cc1 (stereo not given) [MLS000044155] |
| > 66.7 | – | COc1ccc(-c2nnc(Nc3nc4c(OC)cccc4s3)o2)cc1 [MLS000045458] |
| > 66.7 | – | O=c1cc(N2CCc3ccccc32)[nH]c(=O)n1Cc1ccc(F)cc1 [MLS000045863] |
| 7.6 | – | COc1ccc(-c2cn3cccnc3n2)cc1NC(=O)C1CC1 [MLS000045944] |
| > 66.7 | – | COc1ccc(-c2cn3cccnc3n2)cc1NC(=O)C1CCCC1 [MLS000045945] |
| > 66.7 | – | Cc1ccc(NC(=O)c2oc3ccc(S(=O)(=O)N4CCOCC4)cc3c2C)cc1C [MLS000046288] |
| > 66.7 | – | O=C(NCCCN1CCN(c2ccc(F)cc2)CC1)c1cccc(N2CCCC2=O)c1 [MLS000046779] |
| > 66.7 | – | CCOC(=O)Nc1ccc(OC)cc1S(=O)(=O)N1CCCCC1 [MLS000048808] |
| > 66.7 | – | COc1ccc(S(=O)(=O)NC(C)C(=O)Nc2cccc(C(C)=O)c2)cc1 (stereo not given) [MLS000051414] |
| > 66.7 | – | C=CCn1c(NC(=O)c2ccccc2)c(C#N)c2nc3ccccc3nc21 [MLS000057035] |
| > 66.7 | – | O=S(=O)(Nc1cccc2ncccc12)c1cccs1 [MLS000057468] |
| > 66.7 | – | O=C(NC1CCCC1)C1CC1c1ccccc1 (stereo not given) [MLS000061073] |
| > 66.7 | – | COc1ccc(NC(=O)C2C3CCC(C3)C2C(=O)O)cc1OC (stereo not given) [MLS000061524] |
| > 66.7 | – | Cc1nnc(SCc2cnc(-c3ccccc3)o2)nc1O [MLS000061907] |
| > 66.7 | – | Cc1cc2oc(C(=O)NC3CCS(=O)(=O)C3)c(C)c2cc1C (stereo not given) [MLS000063255] |
| > 66.7 | – | CSc1ccccc1NS(=O)(=O)c1ccccc1 [MLS000064343] |
| > 66.7 | – | CC1(C)S[C@@H]2[C@H](NC(=O)Cc3ccccc3)C(=O)N2[C@H]1C(=O)O [MLS000069426] |

| IC50 [µM] | Ki [µM] | Structure (SMILES) |
| --- | --- | --- |
| > 66.7 | – | CCCCn1c(NC(C)=O)c(C#N)c2nc3ccccc3nc21 [MLS000079917] |
| > 66.7 | – | CCCCn1c(NC(=O)CC)c(C#N)c2nc3ccccc3nc21 [MLS000079918] |
| > 66.7 | – | CCCC(=O)Nc1c2c(nn1-c1ccc(OC)cc1)C[S+]([O-])C2 (stereo not given) [MLS000086302] |
| > 66.7 | – | COc1ccc(-c2cc(C(F)(F)F)nc(NC3CCCC3)n2)cc1OC [MLS000086438] |
| > 66.7 | – | COC(=O)C1=[N+]([O-])OC(C(=O)OC)C1c1c[nH]c2ccccc12 (stereo not given) [MLS000090094] |
| > 66.7 | – | CCOc1ccccc1NC(=O)CSc1nccn1-c1ccccc1 [MLS000090721] |
| > 66.7 | – | CC(=O)SCC(=O)N=c1sc2cc(F)ccc2n1C [MLS000091388] |
| > 66.7 | – | CCSc1nnc(NC(=O)CSc2nnc(Cc3cccn3C)n2CCc2ccccc2)s1 [MLS000092939] |
| > 66.7 | – | CCOC(=O)c1sc(=S)n2c1[nH]c(=O)c1ccc(C(=O)OC)cc12 [MLS000094734] |
| > 66.7 | – | CCC(C)(C(=O)NC1CCCC1)N(CC1CCCO1)C(=O)c1ccc2c(c1)OCO2 (stereo not given) [MLS000095004] |
| > 66.7 | – | Cc1cccc(-n2nc3c(c2NC(=O)c2ccco2)CSC3)c1C [MLS000095654] |
| > 66.7 | – | Cc1cccc(OCC(=O)Nc2cc(C)ccc2O)c1 [MLS000100112] |
| > 66.7 | – | COc1ccc(OC)c(NC(=O)C2C3CCC(C3=C(C)C)C2C(=O)O)c1 (stereo not given) [MLS000110216] |
| 6.9 | – | CC(=O)OCCNc1cc(N2CCN(C)CC2)c2noc3c2c1C(=O)c1ccccc1-3 [MLS000118373] |
| > 66.7 | – | COc1ccc(-n2c(Cc3cccn3C)nnc2SCC(=O)Nc2ccc(Cl)cc2)cc1 [MLS000118695] |
| > 66.7 | – | Cc1ccc(NC(=O)C2CCCN2S(=O)(=O)c2cccc3cccnc23)cc1F (stereo not given) [MLS000119092] |
| > 66.7 | – | CCOC(=O)c1cc(NC(=O)C2C3CCC(O3)C2C(=O)O)cc(C(=O)OCC)c1 (stereo not given) [MLS000521500] |
| > 66.7 | > 40.3 | O=c1c(C23CC4CC(CC(C4)C2)C3)c(O)n(-c2ccccc2)n1-c1ccccc1 [MLS000526352] |
| > 66.7 | – | Cc1[nH]n2c(=O)c3c(nc2c1-c1cccc2ccccc12)CCC3 [MLS000530451] |

The next lines start with the compound.

| Structure (SMILES) | IC50 [µM] | Ki [µM] |
| --- | --- | --- |
| COc1ccccc1C1C(C(=O)c2ccccc2)C(=O)C(=O)N1CC(C)C (stereo not given) [(4Z)-4-[hydroxy(phenyl)methylene]-1-isobutyl-5-(2-methoxyphenyl)pyrrolidine-2,3-quinone] | > 66.7 | > 40.3 |
| Cc1ccc(C2C(C(=O)c3cnn(-c4ccccc4)c3C)C(=O)C(=O)N2CCN2CCOCC2)o1 (stereo not given) [(4Z)-4-[hydroxy-(5-methyl-1-phenyl-4-pyrazolyl)methylidene]-5-(5-methyl-2-furanyl)-1-[2-(4-morpholinyl)ethyl]pyrrolidine-2,3-dione] | > 66.7 | > 40.3 |
| COc1ccc(C2C(C(=O)c3ccccc3)C(=O)C(=O)N2CC(C)O)c(OC)c1 (stereo not given) [(4Z)-5-(2,4-dimethoxyphenyl)-4-[hydroxy(phenyl)methylene]-1-(2-hydroxypropyl)pyrrolidine-2,3-quinone] | > 66.7 | > 40.3 |
| COc1ccc(OC)c(C2C(C(=O)c3ccccc3)C(=O)C(=O)N2Cc2ccco2)c1 (stereo not given) [(4Z)-5-(2,5-dimethoxyphenyl)-1-(2-furanylmethyl)-4-[hydroxy(phenyl)methylidene]pyrrolidine-2,3-dione] | > 66.7 | > 40.3 |
| COc1cccc(C(=O)C2C(=O)C(=O)N(Cc3cccnc3)C2c2ccco2)c1 (stereo not given) [(4Z)-5-(2-furanyl)-4-[hydroxy-(3-methoxyphenyl)methylidene]-1-(3-pyridinylmethyl)pyrrolidine-2,3-dione] | > 66.7 | > 40.3 |
| CCN1C(=O)/C(=C2\SC(=S)N(CCCOC)C2=O)c2ccccc21 [(5Z)-5-(1-ethyl-2-keto-indolin-3-ylidene)-3-(3-methoxypropyl)-2-thioxo-thiazolidin-4-one] | > 66.7 | – |
| O=C1Nc2ccccc2/C1=C1/SC(=S)N(CC2CCCO2)C1=O (stereo not given) [(5Z)-5-(2-ketoindolin-3-ylidene)-3-(tetrahydrofurfuryl)-2-thioxo-thiazolidin-4-one] | > 66.7 | > 40.3 |
| CCOC(=O)c1c(C)[nH]c(C=Nc2ccccc2)c1O [(5Z)-5-(anilinomethylidene)-2-methyl-4-oxo-1H-pyrrole-3-carboxylic acid ethyl ester] | > 66.7 | – |
| C=C(c1ccc(Br)cc1)c1sc(N2CCCC2)nc1O [(5Z)-5-[1-(4-bromophenyl)ethylidene]-2-(1-pyrrolidinyl)-4-thiazolone] | > 66.7 | > 40.3 |
| COc1cccc2c1C(=O)c1c(O)c3c(c(O)c1C2=O)C[C@@](O)(C(C)=O)C[C@@H]3O[C@H]1C[C@H](N)[C@H](O)[C@H](C)O1 [(7S,9S)-9-acetyl-7-[(2R,4S,5S,6S)-4-amino-5-hydroxy-6-methyloxan-2-yl]oxy-6,9,11-trihydroxy-4-methoxy-8,10-dihydro-7H-tetracene-5,12-dione;hydrochloride] | 25.1 | – |
| O=C(Cn1cnc2c(cnn2-c2ccc(F)cc2)c1=O)OCc1ccccc1 [(phenylmethyl) 2-[1-(4-fluorophenyl)-4-oxidanylidene-pyrazolo[3,4-d]pyrimidin-5-yl]ethanoate] | > 66.7 | – |
| CN(C)c1nc(N(C)C)nc(N(C)C)n1 [ALTRETAMINE] | > 66.7 | – |
| CCN(CCCc1ccccc1)CCCc1ccccc1 [ALVERINE CITRATE SALT] | > 66.7 | – |
| CC1(C)S[C@@H]2[C@H](NC(=O)C(C(=O)O)c3ccccc3)C(=O)N2[C@H]1C(=O)O (stereo not given in full) [CARBENICILLIN DISODIUM SALT] | > 66.7 | – |
| CCC(SC1=Nc2ccccc2C2=NC(CC(C)C)C(=O)N12)C(=O)Nc1ccc2c(c1)OCO2 (stereo not given) [N-(1,3-benzodioxol-5-yl)-2-[[2-(2-methylpropyl)-3-oxo-2H-imidazo[1,2-c]quinazolin-5-yl]sulfanyl]butanamide] | > 66.7 | – |
| COCCN1Cc2cccc(C(=O)NCc3ccc4c(c3)OCO4)c2C1=O [N-(1,3-benzodioxol-5-ylmethyl)-2-(2-methoxyethyl)-3-oxoisoindoline-4-carboxamide] | > 66.7 | – |
| COc1ccc(NC(=O)C2C(=O)NC3(C)CC2c2ccccc2O3)cc1 (stereo not given) [N-(4-methoxyphenyl)-2-methyl-4-oxo-3,4,5,6-tetrahydro-2H-2,6-methano-1,3-benzoxazocine-5-carboxamide] | > 66.7 | – |
| Cc1cc(NC(=O)CSc2nnc(Cn3c(=O)sc4ccccc43)n2-c2ccccc2C)no1 [N-(5-methyl-3-isoxazolyl)-2-[[4-(2-methylphenyl)-5-[(2-oxo-1,3-benzothiazol-3-yl)methyl]-1,2,4-triazol-3-yl]thio]acetamide] | > 66.7 | – |
| COc1cc2c3c(c1)/C(=C1/SC(NC(C)=O)=NC1=O)C(=O)N3C(C)(C)C=C2C [N-[5-(8-methoxy-4,4,6-trimethyl-2-oxo-4H-pyrrolo[3,2,1-ij]quinolin-1(2H)-ylidene)-4-oxo-4,5-dihydro-1,3-thiazol-2-yl]acetamide] | > 66.7 | – |

Same assay, conditions: inactive by the depositor's call

| IC50 [µM] | Structure (SMILES) |
| --- | --- |
| 22.8 | CCCC(=O)Nc1cc(-c2cn3cccnc3n2)ccc1OC [MLS000045942] |
| 45 | COc1ccc(-c2cn3cccnc3n2)cc1NC(=O)CC(C)C [MLS000045943] |
| 49.9 | CCOC(=O)N1CCN(c2cc(NCCC(=O)O)c3c4c(onc24)-c2ccccc2C3=O)CC1 [MLS000086406] |
| 31.7 | Cc1[nH]n2c(=O)cc(-c3ccc([N+](=O)[O-])cc3)nc2c1-c1ccccc1 [MLS000547439] |
